Data taken from patent publication US20230233576A1, “ECLITASERTIB FOR USE IN TREATING CONDITIONS INVOLVING SYSTEMIC HYPERINFLAMMATORY RESPONSE” (priority 2020, published 2023).

What was measured:
[1] = tested on: adult participants hospitalized for severe COVID-19; assay: Phase 1b severe COVID-19 study: ECG abnormalities (PCSA); type: in vivo, human; conditions: for HR (bpm) Delta (change from baseline) / HR (bpm) Value / PR % change from baseline / PR (ms) Value / QRS % change from baseline / QRS (ms) Value / QT (ms) Delta (change from baseline) / QT (ms) Value / QTcB (ms) Delta (change from baseline) / QTcB (ms) Value / QTcF (ms) Delta (change from baseline) / QTcF (ms) Value: Discharge Before Day 15
Procedure: (§1) Physical examination including lung auscultation and assessment of consciousness, vital sign, electrocardiogram (ECG) parameters were measured per protocol.
(§2) For laboratory parameters (hematology, clinical chemistry, and urinalysis), vital signs, and ECG, incidences of potentially clinically significant abnormality (PCSA) values, actual values and change from baseline were summarized by treatment group.
(§3) For all laboratory, vital signs and ECG parameters, raw data and change from baseline were summarized in descriptive statistics by treatment group and scheduled time of measurement, with the exception of AST, ALT and alkaline phosphatase: instead of summarizing data in descriptive statistics, participants' profiles were presented through graphics by treatment group and with a color code to identify sites. The reason was that blood samples were processed by local laboratories with different normal ranges. For the rest of clinical laboratory these parameters it is reasonable to pool data as they are standard procedure and no significant differences in normal ranges were expected.

[2] = tested on: adult participants hospitalized for severe COVID-19; assay: Phase 1b severe COVID-19 study: vital signs abnormalities (PCSA); type: in vivo, human; conditions: 600 mg, TEAE period
Procedure: as §1, §2, §3

SIRS = assay: acute mouse model of SIRS; type: in vivo
Excerpt: The RIPK1 Inhibitor was studied in an acute mouse model of SIRS. […] There is also rationale that vascular permeability and endothelial dysfunction contribute to SIRS/shock and lethality. […] Additional clinical evidence for the role of RIPK1 in driving systemic inflammation comes from evidence in a rare population of patients that have a mutation in RIPK1 that blocks caspase-mediated cleavage and leads to hyperactivation of this kinase. These patients have periodic fevers with coinciding elevations of cytokines including IL-6 and elevated levels of pRIPK1 in their PBMCs. Patient-derived cells are responsive to RIPK1 kinase inhibition, and some patients are responsive to anti-IL-6 therapy.

[3] = 600 mg (N = 47), TEAE period, safety population
[4] = individual participant 84.0 kg, 600 mg
[5] = individual participant 98.0 kg, 600 mg
[6] = individual participant 114.0 kg, 600 mg

CN1C(=O)[C@@H](NC(=O)c2nnc(Cc3ccccc3)[nH]2)COc2cccnc21 [RIPK1 Inhibitor, (S)-5-benzyl-N-(5-methyl-4-oxo-2,3,4,5-tetrahydropyrido[3,2-b][1,4]oxazepin-3-yl)-4H-1,2,4-triazole-3-carboxamide]
ECG PCSA Heart Rate <40 beats/min [1, 3]: 0/44 | ECG PCSA Heart Rate <50 beats/min [1, 3]: 1/44 | ECG PCSA Heart Rate <50 beats/min and decrease from baseline ≥20 beats/min [1, 3]: 0/44 | ECG PCSA Heart Rate >100 beats/min [1, 3]: 3/44 | ECG PCSA Heart Rate >100 beats/min and increase from baseline ≥20 beats/min [1, 3]: 3/44 | ECG PCSA Heart Rate >120 beats/min [1, 3]: 1/44 | ECG PCSA Heart Rate >120 beats/min and increase from baseline 20 beats/min [1, 3]: 1/44 | ECG PCSA Heart rate>90 beats/min [1, 3]: 6/44 | ECG PCSA PR Interval >200 msec [1, 3]: 1/43 | ECG PCSA PR Interval >200 msec and increase from baseline ≥25% [1, 3]: 0/43 | ECG PCSA PR Interval >220 msec [1, 3]: 1/43 | ECG PCSA PR Interval >220 msec and increase from baseline ≥25% [1, 3]: 0/43 | ECG PCSA PR Interval >240 msec [1, 3]: 0/43 | ECG PCSA QRS Interval >110 msec [1, 3]: 6/44 | ECG PCSA QRS Interval >110 msec and increase from baseline ≥25% [1, 3]: 3/44 | ECG PCSA QRS Interval >120 msec [1, 3]: 3/44 | ECG PCSA QRS Interval >120 msec and increase from baseline ≥25% [1, 3]: 2/44 | ECG PCSA QT Interval >500 msec [1, 3]: 0/44 | ECG PCSA QTc Bazett - change from baseline: Increase from baseline >60 msec [1, 3]: 5/39 | ECG PCSA QTc Bazett - change from baseline: Increase from baseline ]30-60] msec [1, 3]: 2/39 | ECG PCSA QTc Bazett >450 msec [1, 3]: 5/44 | ECG PCSA QTc Bazett >500 msec [1, 3]: 3/44 | ECG PCSA QTc Bazett>480 msec [1, 3]: 3/44 | ECG PCSA QTc Fridericia - change from baseline: Increase from baseline >60 msec [1, 3]: 2/25 | ECG PCSA QTc Fridericia - change from baseline: Increase from baseline ]30-60] msec [1, 3]: 2/25 | ECG PCSA QTc Fridericia >450 msec [1, 3]: 1/29 | ECG PCSA QTc Fridericia >480 msec [1, 3]: 1/29 | ECG PCSA QTc Fridericia >500 msec [1, 3]: 0/29 | ECG PCSA heart rate>90 beats/min and increase from baseline≥20 beats/min [1, 3]: 5/44 | ECG PCSA Heart rate>90 beats/min ([1]; 600 mg, TEAE period): 6 participants | ECG PCSA QRS interval>110 ms ([1]; 600 mg, TEAE period): 6 participants | ECG PCSA QTc Bazett (QTcB)>450 ms ([1]; 600 mg, TEAE period): 5 participants | ECG PCSA QTc Bazett change from baseline>60 ms ([1]; 600 mg, TEAE period): 5 participants | ECG PCSA QTc Bazett>480 msec ([1]; 600 mg, TEAE period): 3 participants | ECG PCSA QTc Bazett>500 ms ([1]; 600 mg, TEAE period): 3 participants | ECG PCSA heart rate>90 beats/min and increase from baseline≥20 beats/min ([1]; 600 mg, TEAE period): 5 participants | HR (bpm) Delta (change from baseline) [1, 4]: −5 bpm | HR (bpm) Value [1, 4]: 73 bpm | PR % change from baseline [1, 4]: 0.0% | PR (ms) Value [1, 4]: 120 ms | QRS % change from baseline [1, 4]: 5.0% | QRS (ms) Value [1, 4]: 84 ms | QT (ms) Delta (change from baseline) [1, 4]: 0 ms | QT (ms) Value [1, 4]: 380 ms | QTcB (ms) Delta (change from baseline) [1, 4]: 69 ++ ms | QTcB (ms) Value [1, 4]: 449 ms | QTcF (ms) Delta (change from baseline) [1, 4]: -34 ms | QTcF (ms) Value [1, 4]: 380 ms | HR (bpm) Delta (change from baseline) [1, 5]: −1 bpm | HR (bpm) Value [1, 5]: 81 bpm | PR % change from baseline [1, 5]: 12.3% | PR (ms) Value [1, 5]: 164 ms | QRS % change from baseline [1, 5]: −14% | QRS (ms) Value [1, 5]: 95 ms | QT (ms) Delta (change from baseline) [1, 5]: -3 ms | QT (ms) Value [1, 5]: 371 ms | QTcB (ms) Delta (change from baseline) [1, 5]: 84 ++ ms | QTcB (ms) Value [1, 5]: 431 ms | QTcF (ms) Delta (change from baseline) [1, 5]: -5 ms | QTcF (ms) Value [1, 5]: 410 ms | HR (bpm) Delta (change from baseline) [1, 6]: 38 + bpm | HR (bpm) Value [1, 6]: 96 + bpm | PR % change from baseline [1, 6]: −11% | PR (ms) Value [1, 6]: 160 ms | QRS % change from baseline [1, 6]: −20% | QRS (ms) Value [1, 6]: 80 ms | QT (ms) Delta (change from baseline) [1, 6]: -30 ms | QT (ms) Value [1, 6]: 360 ms | QTcB (ms) Delta (change from baseline) [1, 6]: 72 ++ ms | QTcB (ms) Value [1, 6]: 455 + ms | QTcF (ms) Delta (change from baseline) [1, 6]: 36 + ms | QTcF (ms) Value [1, 6]: 421 ms | participants with systolic blood pressure≤95 mmHg and decrease from baseline≥20 mmHg [2]: 4 participants | PCSA Diastolic Blood Pressure ≤45 mmHg and decrease from baseline ≥10 mmHg ([2]; Safety population): 1/47 | PCSA Diastolic Blood Pressure ≥110 mmHg and increase from baseline ≥10 mmHg ([2]; Safety population): 0/47 | PCSA Heart Rate ≤50 beats/min and decrease from baseline ≥20 beats/min ([2]; Safety population): 0/47 | PCSA Heart Rate ≥120 beats/min and increase from baseline 20 beats/min ([2]; Safety population): 1/47 | PCSA Systolic Blood Pressure ≤95 mmHg and decrease from baseline ≥20 mmHg ([2]; Safety population): 4/47 | PCSA Systolic Blood Pressure ≥160 mmHg and increase from baseline ≥20 mmHg ([2]; Safety population): 4/47 | SIRS induction (SIRS): dose-dependently blocked and at the highest dose completely abolished
